A word on the CC50: it is the concentration that lowers cell viability or growth by half.

This passage reports IC50 and CC50 results from US20260137698A1, “CYCLIN-DEPENDENT KINASE 7 INHIBITORS” (JOINT STOCK COMPANY «BIOCAD», priority 2022, published 2026).

Data set [1] deals with CDK7/Cyclin H/MNAT1 (Homo sapiens, UniProt P50613). As to the kind of experiment: Inhibition of CDK7/Cyclin H/MNAT1 kinase activity (ADP-Glo). Format: biochemical. The settings on record: mean value from several measurements; read-out: IC50 CDK7/Cyclin H/MNAT. The protocol:
(§1) Measurements were carried out in a 5 μl reaction volume using a 384-well plate (Corning Inc., order no. 4513). The analyzed substances were titrated from 50 μM in increments of 4 at 11 concentration points in a normal strength kinase buffer A (Thermo Fisher Scientific Inc, cat. no. PV3189) supplemented with DTT (Sigma, orde. no. 646563-10X.5ML) and prepared with water (Panreac, order no. 701074). Kinase was diluted in an analogous buffer, mixed with test compounds in plate wells and preincubated for 10 minutes at 25° C. Following incubation, a mixture of reaction substrate (CDKtide (SignalChem, order no. C06-58) or Histone H1 (SignalChem, order no. H10-54N) or PDKtide (SignalChem, order no. P10-58) and ATP (SignalChem, order no. V915B) prepared on a normal strength kinase buffer A was added. 1% solution of dimethyl sulfoxide (DMSO) (Sigma-Aldrich, order no. D2438) in the reaction volume was used as a negative control. The final concentrations of all reaction components are shown in Table 5. The plate was centrifuged at 400 rcf (Eppendorf, 5804 R) for 1 minute and incubated for 40-60 minutes at 25° C. The amount of ATP consumed in the kinase reaction was then measured using the ADP-Glo™ detection system. Luminescence signal was measured using Spark 20M tablet multifunction reader (Tecan Group Ltd, Switzerland). IC50 value was calculated using Magellan 7.2 (Tecan Group Ltd, Switzerland) by approximating experimental points by four-parameter model with the optimization by Levenberg-Marquardt:
(§2) [formula] • where A is the upper asymptote; D is the lower asymptote; C is IC50, half-maximal inhibitory concentration of kinase, nM; B is the curvature (slope).

Data set [2] addresses CDK2/Cyclin A (Homo sapiens, UniProt P24941). In words: Inhibition of CDK2/Cyclin A kinase activity (ADP-Glo). Format: biochemical. The following applies: mean value from several measurements; read-out: IC50 CDK2/Cyclin A. The protocol: as §1, §2
(ADP-Glo turns the ADP formed in a reaction into a luminescent signal.)

For data set [3], the target named is CDK9/Cyclin K (Homo sapiens, UniProt P50750). As to the kind of experiment: Inhibition of CDK9/Cyclin K kinase activity (ADP-Glo). Format: biochemical. The following applies: mean value from several measurements; read-out: IC50 CDK9/Cyclin K. The protocol: as §1, §2
The test system of data set [4] is MDA-MB-468 (triple negative breast cancer). As to the kind of experiment: Antiproliferative assay on MDA-MB-468 cells (AlamarBlue, 96 h). Format: cell-based. The settings on record: Homo sapiens, mean value from several measurements. As for the experimental part: The antiproliferative activity of CDK7 inhibitors according to the present invention was evaluated in a cell test using continuous cell cultures: MDA-MB-468 (triple negative breast cancer, ATCC® HTB-132™) and NCl-H82 (small cell lung cancer, ATCC® HTB-175™) using a viable AlamarBlue dye (Thermo Fisher Scientific Inc, order no. DAL1100). The cells were grown in DMEM (PanEco, order no. C330π) and RPMI-1640 (PanEco, order no. C330π), respectively. The basal growth medium was enriched with L-glutamine at a concentration of 2 mM (PanEco, order no. Φ032) and 10% fetal bovine serum (Gibco, order no. 16140-071). The night before measurement, MDA-MB-468 adherent cells were detached from plastic with a solution of trypsin-EDTA (PanEco, order no. Π039π), the solution was then inactivated by a DMEM complete medium, centrifuged at 1000 RPM (Eppendorf, 5804 R), a suspension of cells was prepared in a DMEM complete medium, introduced into 96-well culture plates (Corning Inc, order no. 3599) at 8×10^3 cells in 100 μl of medium per well. The next day, test compounds were dissolved in DMSO and diluted with a DMEM complete medium to a final concentration ranging from 50 μM to 10 pM. Diluted compounds in a volume of 50 μl were introduced into the plate wells with cells in triplicates (the final concentration of DMSO was no more than 1%) and incubated at 37° C. in an incubator with 5% CO2 for 96 hours. NCl-H82 suspension cell line was prepared on the day of the analysis. 10×10^3 cells in 100 μl of an RPMI-1640 complete medium were added to each well of a 96-well plate. The procedure for sample dilution is as described above. Cells with test compounds were incubated at 37° C. in an incubator with 5% CO2 for 120 hours. Following incubation, […] of AlamarBlue reagent (Thermo Fisher Scientific Inc., order no. DAL1100) was added to the wells, the contents of the plates were stirred in an orbital shaker (Biosan, Latvia), then further incubated for 5.5-6 hours at 37° C. in an incubator with 5% CO2. The number of viable cells was detected using the Infinite M200Pro microplate spectrophotometer (Tecan Group Ltd, Switzerland) by way of measuring a fluorescent signal at an excitation wavelength (λEx) of 540 nm and an emission wavelength (λEm) of 590 nm.
IC50 value was calculated using the Magellan software (Tecan Group Ltd, Switzerland) by approximating experimental points by four-parameter model with the optimization by Levenberg-Marquardt: […]
Background: The colour change of resazurin is a common sign of viable cells or microbes.

Data set [5] in a line: General cytotoxicity on primary differentiated HepaRG cells (72 h). Format: cell-based. The settings on record: human, general toxicity, mean value from several measurements. An excerpt: General cytotoxicity of CDK7 inhibitors according to the present invention was investigated using primary differentiated HepaRG cells (Biopredic Int, order no. HPR101). A week before the measurement, the cells were thawed and maintained in Basal hepatic cell medium (Biopredic Int, order no. MIL700079) supplemented with HepaRG maintenance/metabolism medium supplement with antibiotics (Biopredic Int, order no. ADD620C). The medium in vials with cells was changed every 2-3 days. The night before the test, the cells were plated in wells of 96-well plates (Corning Inc., order no. 3599) at 25×10^3 cells in 100 μl of medium per well. The next day, test compounds were introduced into plate wells with cells, untitrated at a concentration ranging from 200 μM to 0.2 nM, and incubated for 72 hours. Cell viability was assessed as described above.

pIC50: −log10 of the molar value.

Sequence of CDK9/Cyclin K (P50750 whole entry): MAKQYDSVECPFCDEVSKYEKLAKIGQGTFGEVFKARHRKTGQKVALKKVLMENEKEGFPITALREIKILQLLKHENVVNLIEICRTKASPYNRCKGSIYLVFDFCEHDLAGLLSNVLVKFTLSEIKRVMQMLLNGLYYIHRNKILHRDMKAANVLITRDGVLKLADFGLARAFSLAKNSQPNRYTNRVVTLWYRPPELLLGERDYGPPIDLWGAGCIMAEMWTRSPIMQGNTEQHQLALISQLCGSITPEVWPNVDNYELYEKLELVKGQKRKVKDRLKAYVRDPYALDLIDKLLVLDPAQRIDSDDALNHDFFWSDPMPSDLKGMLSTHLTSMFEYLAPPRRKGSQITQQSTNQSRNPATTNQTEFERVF
Sequence of CDK9/Cyclin K (O75909 whole entry partner): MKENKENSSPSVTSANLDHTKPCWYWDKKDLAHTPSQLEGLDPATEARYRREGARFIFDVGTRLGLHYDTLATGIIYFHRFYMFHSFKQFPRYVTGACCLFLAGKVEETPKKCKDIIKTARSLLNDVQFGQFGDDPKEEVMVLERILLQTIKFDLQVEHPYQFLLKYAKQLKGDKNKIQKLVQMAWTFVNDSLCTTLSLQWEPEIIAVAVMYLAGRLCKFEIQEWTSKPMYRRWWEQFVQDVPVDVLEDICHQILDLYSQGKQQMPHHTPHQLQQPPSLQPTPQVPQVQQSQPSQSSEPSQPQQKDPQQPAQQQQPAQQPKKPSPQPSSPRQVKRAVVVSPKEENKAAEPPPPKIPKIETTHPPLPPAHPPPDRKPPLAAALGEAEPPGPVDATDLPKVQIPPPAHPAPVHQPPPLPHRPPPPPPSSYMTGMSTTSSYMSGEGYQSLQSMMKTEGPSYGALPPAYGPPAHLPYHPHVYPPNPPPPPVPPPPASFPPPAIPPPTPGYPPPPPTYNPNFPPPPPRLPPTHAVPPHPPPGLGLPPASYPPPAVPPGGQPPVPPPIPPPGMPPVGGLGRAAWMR
Sequence of CDK7/Cyclin H/MNAT1 (P50613 whole entry): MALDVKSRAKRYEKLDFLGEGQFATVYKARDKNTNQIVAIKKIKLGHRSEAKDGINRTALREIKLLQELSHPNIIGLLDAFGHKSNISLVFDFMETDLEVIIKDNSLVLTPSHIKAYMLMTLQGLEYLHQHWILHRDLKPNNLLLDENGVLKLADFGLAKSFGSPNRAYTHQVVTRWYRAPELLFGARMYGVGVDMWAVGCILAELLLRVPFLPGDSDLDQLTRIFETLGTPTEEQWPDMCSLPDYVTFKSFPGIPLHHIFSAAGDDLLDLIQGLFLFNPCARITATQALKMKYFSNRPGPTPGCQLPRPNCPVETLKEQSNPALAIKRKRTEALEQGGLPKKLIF
Sequence of CDK7/Cyclin H/MNAT1 (P51946 whole entry partner): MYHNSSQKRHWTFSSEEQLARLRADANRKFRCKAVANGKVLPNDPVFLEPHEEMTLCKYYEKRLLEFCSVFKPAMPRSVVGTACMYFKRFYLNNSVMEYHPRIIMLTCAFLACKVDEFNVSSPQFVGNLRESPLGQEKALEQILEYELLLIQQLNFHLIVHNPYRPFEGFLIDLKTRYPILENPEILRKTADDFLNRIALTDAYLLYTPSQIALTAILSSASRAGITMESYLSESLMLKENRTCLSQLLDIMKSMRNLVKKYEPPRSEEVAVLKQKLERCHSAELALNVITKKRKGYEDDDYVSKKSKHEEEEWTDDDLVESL
Sequence of CDK7/Cyclin H/MNAT1 (P51948 whole entry partner): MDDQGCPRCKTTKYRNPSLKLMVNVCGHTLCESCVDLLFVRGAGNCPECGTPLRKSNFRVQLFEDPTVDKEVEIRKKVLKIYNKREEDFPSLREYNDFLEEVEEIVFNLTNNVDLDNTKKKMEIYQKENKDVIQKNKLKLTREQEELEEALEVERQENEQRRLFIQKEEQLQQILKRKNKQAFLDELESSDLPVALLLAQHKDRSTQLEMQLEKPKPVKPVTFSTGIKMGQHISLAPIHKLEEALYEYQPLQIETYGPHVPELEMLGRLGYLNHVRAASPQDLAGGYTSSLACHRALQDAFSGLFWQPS

`O=C(c1ccccc1)c1cc(-c2nc(N[C@H]3CCCNC3)ncc2C(F)(F)F)c[nH]1` [CDK7_535, 4-(5-benzoyl-1H-pyrrol-3-yl)-N-[(3S)-piperidin-3-yl]-5-(trifluoromethyl) pyrimidin-2-amine]: the pIC50 in data set [1] was 7.30 to 8.30; in data set [2], under 6.70; in data set [3], 6.70 to 7.30; in data set [4], 6.00 to 7.00. Besides, in data set [5], the CC50 at 72 h is over 2000 nM.

In the case of `NS(=O)(=O)c1cccc(Nc2nc(N[C@H]3CCCNC3)ncc2C(F)(F)F)c1` [CDK7_891, 3-[(2-{[(3S)-piperidin-3-yl]amino}-5-(trifluoromethyl)pyrimidin-4-yl)amino] benzene-1-sulfonamide], the figures for the pIC50 in data set [1], in data set [2] and in data set [4] were 7.30 to 8.30, under 6.70 and 6.00 to 7.00, respectively.

For the compound `Cn1c(-c2cc(-c3nc(N[C@H]4CCCNC4)ncc3C(F)(F)F)c[nH]2)nc2ccccc21` [CDK7_1124, 4-[5-(1-methyl-1H-1,3-benzodiazol-2-yl)-1H-pyrrol-3-yl]-N-[(3S)-piperidin-3-yl]-5-(trifluoromethyl)py-rimidin-2-amine], the pIC50 is 7.30 to 8.30 in data set [1], under 6.70 in data set [2] and under 6.70 in data set [3]. Also, in data set [5], the CC50 at 72 h was over 2000 nM.

As to `CC(=O)Nc1ccccc1Nc1nc(N[C@H]2CCCNC2)ncc1C(F)(F)F` [CDK7_898, N-{2-[(2-{[(3S)-piperidin-3-yl]amino}-5-(trifluoromethyl)pyrimidin-4-yl)amino]phenyl} acetamide], the pIC50 in data set [1] is 7.30 to 8.30; in data set [2], under 6.70; in data set [4] it was 6.00 to 7.00. Moreover, the CC50 at 72 h in data set [5] was over 2000 nM.

Regarding `O=c1[nH]cc(-c2nc(N[C@H]3CCCNC3)ncc2C(F)(F)F)c2ccccc12` [CDK7_921, 4-(2-{[(3S)-piperidin-3-yl]amino}-5-(trifluoromethyl)pyrimidin-4-yl)-1,2-dihydroisoquin-olin-1-one], the pIC50 in data set [1] is 7.30 to 8.30.

In data set [4], `FC(F)(F)c1cnc(N[C@H]2CCCNC2)nc1Oc1cccc2c1NCCC2` [CDK7_829, N-[(3S)-piperidin-3-yl]-4-(1,2,3,4-tetrahydroquin-olin-8-yloxy)-5-(trifluoromethyl) pyrimidin-2-amine] had a pIC50 of under 6.00. Moreover, in data set [5], the CC50 at 72 h was over 2000 nM.

With `CN(C)C(=O)c1c[nH]cc1-c1nc(N[C@H]2CCCNC2)ncc1C(F)(F)F` [CDK7_991, N,N-dimethyl-4-(2-{[(3S)-piperidin-3-yl]amino}-5-(trifluoromethyl)py-rimidin-4-yl)-1H-pyrrole-3-carboxamide], the pIC50 in data set [1] was under 6.70.

Turning to `CN1CCc2c(-c3nc(N[C@H]4CCCNC4)ncc3C(F)(F)F)c[nH]c2C1=O` [CDK7_843, 6-methyl-3-(2-{[(3S)-piperidin-3-yl]amino}-5-(trifluoromethyl)pyrimidin-4-yl)-1H,4H,5H,6H, 7H-pyrrolo[2,3-c]pyridin-7-one], the pIC50 in data set [1] is 7.30 to 8.30; in data set [2], under 6.70; in data set [3], under 6.70.

With `Nc1ccccc1Nc1nc(N[C@H]2CCCNC2)ncc1C(F)(F)F` [CDK7_550, N4-(2-aminophenyl)-N2-[(3S)-piperidin-3-yl]-5-(trifluoromethyl) pyrimidine-2,4-diamine], the pIC50 in data set [1] was 6.70 to 7.30; in data set [2], under 6.70; in data set [4], under 6.00. In data set [5], this compound had a CC50 at 72 h of over 2000 nM.

As for `FC(F)(F)c1cnc(N[C@H]2CCCNC2)nc1Oc1ccccc1` [CDK7_754, 4-phenoxy-N-[(3S)-piperidin-3-yl]-5-(trifluoromethyl) pyrimidin-2-amine], the pIC50 is 7.30 to 8.30 in data set [1], under 6.70 in data set [2] and under 6.00 in data set [4]. Also, in data set [5], the CC50 at 72 h was over 2000 nM.

Regarding `CN1CCC[C@H](Nc2ncc(C(F)(F)F)c(-c3c[nH]c(C(=O)N(C)C)c3)n2)C1` [CDK7_1019], the pIC50 in data set [1] is 7.30 to 8.30; in data set [2] it was under 6.70; in data set [3], under 6.70. The CC50 at 72 h in data set [5] was over 2000 nM.

As to `CP(C)(=O)c1ccccc1Oc1nc(N[C@H]2CCCNC2)ncc1C(F)(F)F` [CDK7_897, 4-[2-(dimethylphos-phoryl)phenoxy]-N-[(3S)-piperidin-3-yl]-5-(trifluoromethyl) pyrimidin-2-amine], the pIC50 in data set [2] was under 6.70. Besides, in data set [5], the cytotoxic concentration (CC50) at 72 h is over 2000 nM.

With `FC(F)(F)c1cnc(N[C@H]2CCCNC2)nc1-n1cnc2ccccc21` [CDK7_810, 4-(1H-1,3-benzodiazol-1-yl)-N-[(3S)-piperidin-3-yl]-5-(trifluoromethyl)py-rimidin-2-amine], the pIC50 in data set [1] was 7.30 to 8.30; in data set [2], under 6.70; in data set [4] it was under 6.00. Further, the CC50 at 72 h in data set [5] is over 2000 nM.

For the compound `FC(F)(F)c1cnc(N[C@H]2CCCNC2)nc1Cc1ccccc1` [CDK7_766, 4-benzyl-N-[(3S)-piperidin-3-yl]-5-(trifluoromethyl) pyrimidin-2-amine], the pIC50 in data set [1] is 6.70 to 7.30; in data set [2] it was under 6.70; in data set [4], under 6.00. Moreover, the CC50 at 72 h in data set [5] is over 2000 nM.

`O=C1CN(c2nc(N[C@H]3CCCNC3)ncc2C(F)(F)F)c2ccccc2N1` [CDK7_900, 4-(2-{[(3S)-piperidin-3-yl]amino}-5-(trifluoromethyl)pyrimidin-4-yl)-1,2,3,4-tetrahydroquin-oxazolin-2-one]: in data set [5], the CC50 at 72 h is over 2000 nM.

Consider `CP(C)(=O)c1cccc(Nc2nc(N[C@H]3CCCNC3)ncc2C(F)(F)F)c1` [CDK7_888, N4-[3-(dimethylphos-phoryl)phenyl]-N2-[(3S)-piperidin-3-yl]-5-(trifluoromethyl) pyrimidine-2,4-diamine], for which the pIC50 was 7.30 to 8.30 in data set [1], under 6.70 in data set [2] and under 6.00 in data set [4]. Further, in data set [5], the CC50 at 72 h is over 2000 nM.

`FC(F)(F)c1cnc(N[C@H]2CCCNC2)nc1Oc1cccc2cccnc12` [CDK7_830, N-[(3S)-piperidin-3-yl]-4-(quinolin-8-yloxy)-5-(trifluoromethyl) pyrimidin-2-amine] showed a pIC50 in data set [4] of under 6.00. Moreover, the CC50 at 72 h in data set [5] was over 2000 nM.

Turning to `FC(F)(F)c1cnc(N[C@H]2CCCNC2)nc1-n1ccc2ccccc21` [CDK7_809, 4-(1H-indol-1-yl)-N-[(3S)-piperidin-3-yl]-5-(trifluoromethyl)py-rimidin-2-amine], the pIC50 was 7.30 to 8.30 in data set [1], under 6.70 in data set [2] and under 6.00 in data set [4]. In data set [5], the half-maximal cytotoxic concentration (CC50) at 72 h is over 2000 nM.
